Measured values as given in patent US8198279B2, “Pyrido[2,3-b]pyrazin-8-substituted compounds and their use” (Institute of Cancer Research: Royal Cancer Hospital (The), priority 2007, dated 2012).
pIC50: −log10 of the molar value. “And” between values parts separate entries of the source, which are not always exact repeats. Equal entries are not always repeated.

Tests used:
[1] = biological target: T1, B-RAF (Homo sapiens, UniProt P15056, V600E); test: DELFIA Kinase Assay; type: biochemical; details: 100 μM ATP, GST-MEK substrate
T1 construct: made in house
T1 sequence (P15056 whole entry V600E): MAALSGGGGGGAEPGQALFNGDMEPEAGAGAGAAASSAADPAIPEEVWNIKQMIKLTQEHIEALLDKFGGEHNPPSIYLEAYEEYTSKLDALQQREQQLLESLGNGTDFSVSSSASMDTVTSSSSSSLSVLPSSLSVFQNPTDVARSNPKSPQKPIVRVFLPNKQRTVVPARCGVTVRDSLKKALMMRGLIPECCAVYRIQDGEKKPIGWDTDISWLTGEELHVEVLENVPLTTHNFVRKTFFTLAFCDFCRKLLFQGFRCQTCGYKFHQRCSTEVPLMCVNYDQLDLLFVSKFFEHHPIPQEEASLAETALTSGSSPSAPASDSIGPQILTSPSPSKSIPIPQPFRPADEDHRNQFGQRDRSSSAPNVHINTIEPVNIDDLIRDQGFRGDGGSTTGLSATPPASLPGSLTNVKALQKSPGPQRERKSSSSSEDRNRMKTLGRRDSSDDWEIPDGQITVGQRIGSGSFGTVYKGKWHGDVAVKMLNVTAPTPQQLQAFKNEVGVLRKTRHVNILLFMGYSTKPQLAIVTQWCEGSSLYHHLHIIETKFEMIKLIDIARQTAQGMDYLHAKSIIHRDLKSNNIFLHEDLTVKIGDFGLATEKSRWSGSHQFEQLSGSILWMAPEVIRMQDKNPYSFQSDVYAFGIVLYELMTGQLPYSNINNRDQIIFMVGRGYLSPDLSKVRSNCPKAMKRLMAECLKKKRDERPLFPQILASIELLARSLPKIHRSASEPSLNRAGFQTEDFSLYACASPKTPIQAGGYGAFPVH
Method: Biological Methods—DELFIA Kinase Assay
Compounds were assessed by a kinase assay performed according to the following protocol.
DKB1 (DKB with B-RAF and MEK Protein):
Combine 4950 μL of DKB and 50 μL of 2.5 mg/ml GST-MEK stock (to give […] of MEK per 40 μL). Then add 22.5 μL of B-RAF to give ˜0.2 μL of B-RAF per 40 μL.
100 mM stock, dilute to 500 μM to give 100 μM final concentration in assay.
• 1. Preblock wells with 5% milk in TBS for 1 hour. • 2. Wash wells with 3× with 200 μL TBS. • 3. Plate out 40 μL of DKB1 for all inhibitors (test compounds), DMSO control, and optionally other control compounds. • 4. Plate out 40 μL of DKB2 for BO and EV wells. • 5. Add inhibitors (test compounds) at 0.5 μL per well according to desired plate layout. • 6. Add 0.5 μL DMSO to vehicle control wells. • 7. Add 2 μL of B-RAF to BO and EV wells. • 8. Pre-incubate with inhibitors (test compounds) for 10 minutes at room temperature with shaking. • 9. Add 10 μL of 500 μM ATP stock, in DKB, to give 100 μM assay concentration. • 10. Seal plates with TopSeal and incubate at room temperature with shaking for 45 minutes. • 11. Wash plates 3× with 200 μL 0.1% Tween20/Water to terminate reaction. • 12. Add 50 μL per well of antibody mix and incubate for 1 hour at room temperature with shaking. • 13. Wash plates 3× with 200 μL 0.1% Tween20/Water. • 14. Add 100 μL DELFIA enhancement solution per well, cover in foil, and incubate at room temperature for 30 minutes with shaking. • 15. Read on Victor using Europium protocol.
Values for the blank (Empty Vector) are subtracted from all values. The DMSO controls are set as 100% activity and assay points (the response) are calculated as a percentage of the DMSO control. Data are plotted using Graphpad Prism software and a non-linear regression line is calculated using a variable slope sigmoidal dose-response equation (Y=Bottom+(Top−Bottom)/(1+10^((LogEC50−X)*HillSlope)) where X is the logarithm of concentration. Y is the response). The IC50 generated by this procedure is the concentration of the drug that produces a percentage control fluorescence value midway between the saturation, and zero-effect plateaus. Three independent assays are usually performed and the mean IC50 is reported.

[2] = tested on: WM266.4 melanoma cells; test: SRB Cell Proliferation Assay (SRB GI50); type: cell-based; details: Homo sapiens, WM 266-4, 144 h, 6 days growth
Method: Biological Methods —SRB Cell Proliferation Assay (SRB GI50)
Cultures of WM266.4 melanoma cells are routinely cultured in DMEM/10% foetal bovine serum, at 37° C., in 5% CO2 water saturated atmosphere. Cultures are maintained in exponential growth phase by sub-culturing before having become confluent (3-5 day intervals). Single cell suspensions are prepared by harvesting an 80 cm^2 tissue culture flask with 5 mL commercial trypsin EDTA. After 5 minutes, the detached cells are mixed with 5 mL fully complemented culture medium and centrifugally pelleted (1000 rpm for 7 minutes). After aspirating the supernatant, the cell pellet is re-suspended in 10 mL fresh medium and the cells fully disaggregated by drawing the whole volume up/down 5 times through a 19-gauge needle. The concentration of the cells is determined using a haemocytometer (1/10 dilution). A suitable volume to give at least a 2-fold excess for the number of tests being conducted, typically 100-200 mL, is prepared by diluting the cell suspension to 10,000/mL, and 100 μL/well dispensed into 96 well plates using a programmable 8-channel peristaltic pump, giving 1000 cells/well, leaving column 12 blank. The plates are returned to the incubator for 24 hours to allow the cells to re-attach.
The compounds being tested are prepared at 20 mM in dimethylsulphoxide. Aliquots (200 μL) are diluted into 20 mL culture medium giving 200 μM, and 10 serial dilutions of 3× performed by transferring 5 mL to 10 mL. Aliquots (100 μL) of each dilution are added to the wells, using an 8-channel pipettor, thus performing a final further 2× dilution, and giving doses ranging from 100 μM to 0.005 μM. Column 11 receives plain culture medium only. Each compound is tested in quadruplicate, each replicate being the average of four wells, and two plates per compound.
After a further 6 days growth, the plates are emptied, and the cells are fixed in 10% trichloroacteic acid for 10 minutes on ice. After thorough rinsing in running tap water, the plates are dried, and stained by adding 50 μL of a solution of 0.1% sulphorhodamine-B in 1% acetic acid, for 10 minutes at room temperature. The stain is poured out and the plates thoroughly rinsed under a stream of 1% acetic acid, thus removing unbound stain, and dried. The bound stain is taken into solution by addition of 150 μL Tris buffer pH 8, followed by 10 minutes on a plate-shaker (approximately 500 rpm). The absorbance at 540 nm in each well (being proportional to the number of cells present) is determined using a plate reader.
After averaging the results in rows A-D and E-H, the blank value (row 12) is subtracted, and results expressed as percentage of the untreated value (row 11). […] The GI50 generated by this procedure is the concentration of the drug that produces a percentage control A540 midway between the saturation, and zero-effect plateaus.

| SMILES | pIC50 [1] | GI50 [2] |
| --- | --- | --- |
| O=C(Nc1cccc(Oc2ccnc3[nH]c(=O)cnc23)c1)Nc1cc(C(F)(F)F)ccc1F [AA-007, 1-(2-fluoro-5-(trifluoromethyl)phenyl)-3-(3-(3-oxo-3,4-dihydropyrido[2,3-b]pyrazin-8-yloxy)phenyl)urea] | > 7.00 | 1000 to 10000 nM |
| Cc1nc2nccc(Oc3ccc(NC(=O)Nc4cc(C(C)(C)C)nn4-c4ccccc4)c4ccccc34)c2[nH]c1=O [AA-035, 1-(3-tert-butyl-1-phenyl-1H-pyrazol-5-yl)-3-(4-(3-methyl-2-oxo-1,2-dihydropyrido[2,3-b]pyrazin-8-yloxy)naphthalen-1-yl)urea] | 6.00 to 7.00 |  |
| O=C(Nc1cc(C(F)(F)F)ccc1F)Nc1ccc(Oc2ccnc3ncc(=O)[nH]c23)c2ccccc12 [AA-038, 1-(2-fluoro-5-(trifluoromethyl)phenyl)-3-(4-(2-oxo-1,2-dihydropyrido[2,3-b]pyrazin-8-yloxy)naphthalen-1-yl)urea] | > 6.00 and 6.00 to 7.00 |  |
| Cc1nc2nccc(Oc3ccc(NC(=O)Nc4cc(C(F)(F)F)ccc4F)c4ccccc34)c2[nH]c1=O [AA-039, 1-(2-fluoro-5-(trifluoromethyl)phenyl)-3-(4-(3-methyl-2-oxo-1,2-dihydropyrido[2,3-b]pyrazin-8-yloxy)naphthalen-1-yl)urea] | > 6.00 and 6.00 to 7.00 |  |
| Cc1ccc(-n2nc(C(C)(C)C)cc2NC(=O)Nc2ccc(Oc3ccnc4ncc(=O)[nH]c34)cc2)cc1 [AA-040, 1-(3-tert-butyl-1-p-tolyl-1H-pyrazol-5-yl)-3-(4-(2-oxo-1,2-dihydropyrido[2,3-b]pyrazin-8-yloxy)phenyl)urea] | 6.00 to 7.00 |  |
| Cc1nc2nccc(Oc3ccc(NC(=O)Nc4cc(C(C)(C)C)nn4-c4ccccc4)c(F)c3)c2[nH]c1=O [AA-041, 1-(3-Tert-butyl-1-phenyl-1H-pyrazol-5-yl)-3-(2-fluoro-4-(3-methyl-2-oxo-1,2-dihydropyrido[2,3-b]pyrazin-8-yloxy)phenyl)urea] | 6.00 to 7.00 |  |
| O=C(Nc1ccc(Oc2ccnc3ncc(=O)[nH]c23)cc1)Nc1ccc(Cl)c(C(F)(F)F)c1 [AA-042, 1-(4-chloro-3-(trifluoromethyl)phenyl)-3-(4-(2-oxo-1,2-dihydropyrido[2,3-b]pyrazin-8-yloxy)phenyl)urea] | > 6.00 and 6.00 to 7.00 |  |
| O=C(Nc1ccc(Oc2ccnc3ncc(=O)[nH]c23)cc1)Nc1cc(C(F)(F)F)ccc1F [AA-043, 1-(2-fluoro-5-(trifluoromethyl)phenyl)-3-(4-(2-oxo-1,2-dihydropyrido[2,3-b]pyrazin-8-yloxy)phenyl)urea] | 6.00 to 7.00 |  |
| Nc1nc2c(Oc3ccc(NC(=O)Nc4cc(C(F)(F)F)ccc4F)c(F)c3)ccnc2[nH]c1=O [AA-044, 1-(4-(2-amino-3-oxo-3,4-dihydropyrido[2,3-b]pyrazin-8-yloxy)-2-fluorophenyl)-3-(2-fluoro-5-(trifluoromethyl)phenyl)urea] | > 7.00 |  |

Continued, values first:

| pIC50 [1] | GI50 [2] | SMILES |
| --- | --- | --- |
| > 7.00 |  | CSc1cc(Oc2ccnc3ncc(=O)[nH]c23)ccc1NC(=O)Nc1ccc(Cl)c(C(F)(F)F)c1 [AA-045, 1-(4-chloro-3-(trifluoromethyl)phenyl)-3-(2-(methylthio)-4-(2-oxo-1,2-dihydropyrido[2,3-b]pyrazin-8-yloxy)phenyl)urea] |
| > 6.00 and 6.00 to 7.00 |  | CSc1cc(Oc2ccnc3ncc(=O)[nH]c23)ccc1NC(=O)Nc1cc(C(F)(F)F)ccc1F [AA-046, 1-(2-fluoro-5-(trifluoromethyl)phenyl)-3-(2-(methylthio)-4-(2-oxo-1,2-dihydropyrido[2,3-b]pyrazin-8-yloxy)phenyl)urea] |
| > 7.00 |  | O=C(Nc1ccc(Oc2ccnc3ncc(=O)[nH]c23)cc1F)Nc1cc(C(F)(F)F)ccc1F [AA-047] |
| > 7.00 |  | O=C(Nc1ccc(Cl)c(C(F)(F)F)c1)Nc1ccc(Oc2ccnc3ncc(=O)[nH]c23)cc1F [AA-048, 1-(4-Chloro-3-(trifluoromethyl)phenyl)-3-(2-fluoro-4-(2-oxo-1,2-dihydropyrido[2,3-b]pyrazin-8-yloxy)phenyl)urea] |
| > 6.00 and 6.00 to 7.00 |  | Cc1nc2nccc(Oc3ccc(NC(=O)Nc4cc(C(F)(F)F)ccc4F)c(F)c3)c2[nH]c1=O [AA-049, 1-(2-fluoro-4-(3-methyl-2-oxo-1,2-dihydropyrido[3,2-b]pyrazin-8-yloxy)phenyl)-3-(2-fluoro-5-(trifluoromethyl)phenyl)urea] |
| > 7.00 |  | O=C(Nc1ccc(Oc2ccnc3[nH]c(=O)c(=O)[nH]c23)cc1)Nc1ccc(Cl)c(C(F)(F)F)c1 [AA-050, 1-(4-chloro-3-(trifluoromethyl)phenyl)-3-(4-(2,3-dioxo-1,2,3,4-tetrahydropyrido[2,3-b]pyrazin-8-yloxy)phenyl)urea] |
| > 7.00 |  | CSc1cc(Oc2ccnc3[nH]c(=O)c(=O)[nH]c23)ccc1NC(=O)Nc1ccc(Cl)c(C(F)(F)F)c1 [AA-051, 1-(4-chloro-3-(trifluoromethyl)phenyl)-3-(4-(2,3-dioxo-1,2,3,4-tetrahydropyrido[2,3-b]pyrazin-8-yloxy)-2-(methylthio)phenyl)urea] |
| > 7.00 |  | CSc1cc(Oc2ccnc3[nH]c(=O)c(=O)[nH]c23)ccc1NC(=O)Nc1cc(C(F)(F)F)ccc1F [AA-052, 1-(4-(2,3-dioxo-1,2,3,4-tetrahydropyrido[2,3-b]pyrazin-8-yloxy)-2-(methylthio)phenyl)-3-(2-fluoro-5-(trifluoromethyl)phenyl)urea] |
| > 6.00 and 6.00 to 7.00 |  | CN1CCN(c2cnc3c(Oc4ccc(NC(=O)Nc5cc(C(C)(C)C)nn5-c5ccccc5)c(F)c4)ccnc3n2)CC1 [AA-053, 1-(3-Tert-butyl-1-phenyl-1H-pyrazol-5-yl)-3-(2-fluoro-4-(3-(4-methylpiperazin-1-yl)pyrido[2,3-b]pyrazin-8-yloxy)phenyl)urea] |
| > 7.00 |  | O=C(Nc1ccc(Oc2ccnc3nc(N4CCOCC4)cnc23)cc1F)Nc1cc(C(F)(F)F)ccc1F [AA-054, 1-(2-Fluoro-4-(3-morpholinopyrido[2,3-b]pyrazin-8-yloxy)phenyl)-3-(2-fluoro-5-(trifluoromethyl)phenyl)urea] |
| > 6.00 and 6.00 to 7.00 |  | CN1CCN(c2cnc3c(Oc4ccc(NC(=O)Nc5cc(C(F)(F)F)ccc5F)c(F)c4)ccnc3n2)CC1 [AA-056, 1-(2-Fluoro-4-(3-(4-methylpiperazin-1-yl)pyrido[3,2-b]pyrazin-8-yloxy)phenyl)-3-(2-fluoro-5-(trifluoromethyl)phenyl)urea] |
| 6.00 to 7.00 |  | O=C(Nc1cc(C(F)(F)F)ccc1F)Nc1ccc(Oc2ccnc3[nH]c(=O)c(C(F)(F)F)nc23)c2ccccc12 [AA-082, 1-(2-fluoro-5-(trifluoromethyl)phenyl)-3-(4-(3-oxo-2-(trifluoromethyl)-3,4-dihydropyrido[2,3-b]pyrazin-8-yloxy)naphthalen-1-yl)urea] |
